One compound from patent US7176224B2, “Oxazolyl-aryloxyacetic acid derivatives and their use as PPAR agonists” (Eli Lilly and Company, priority 2000, dated 2007) can be followed below.

For one experiment, the system named is Hu apoAI transgenic mice. In words: Evaluation of triglyceride and cholesterol levels in hu apoAI transgenic mice. To be noted: 30 mg/kg oral gavage daily for 7 days; serum HDLc FPLC area under the curve, over mice receiving vehicle. The class given is in vivo. The method, then: Five to six week old male mice, transgenic for human apoAI [C57B1/6-tgn(apoa1) 1rub, Jackson Laboratory, Bar Harbor, Me.] were housed five per cage (10″×20″8″ with aspen chip bedding) with food (Purina 5001) and water available at all times. After an acclimation period of 2 weeks, animals were individually identified by ear notches, weighed, and assigned to groups based on body weight. Beginning the following morning, mice were dosed daily by oral gavage for 7 days using a 20 gauge, 1½″ curved disposable feeding needle (Popper & Sons). Treatments were test compounds (30 mg/kg), a positive control (fenofibrate, 100 mg/kg) or vehicle [1% carboxymethylcellulose (w/v)/0.25% Tween80 (w/v); 0.2 ml/mouse]. Prior to termination on day 7, mice were weighed and dosed. Three hours after dosing, animals were anesthetized by inhalation of isoflurane (2–4%; Abbott Laboratories, Chicago, Ill.) and blood obtained via cardiac puncture (0.7–1.0 ml). Whole blood was transferred to serum separator tubes (Vacutainer SST), chilled on ice, and permitted to clot. Serum was obtained after centrifugation at 4° C. and frozen until analysis for triglycerides, total cholesterol, compound levels, and serum lipoprotein profile by fast protein liquid chromatography (FPLC) coupled to an inline detection system. After sacrifice by cervical dislocation, the liver, heart and epididymal fat pads were excised and weighed.
The animals dosed with vehicle had average triglycerides values of 60–80 mg/dl, which were reduced by the positive control fenofibrate (33–58 mg/dl with a mean reduction of 37%). The animals dosed with vehicle had average total serum cholesterol values of 140–180 mg/dl, which were increased by fenofibrate (190–280 mg/dl, with a mean elevation of 41%). […] increased the amount of HDLc (68–96 v-sec with a mean percent increase of 48%).
Glucose was measured colorimetrically using commercially purchased reagents (Sigma #315-500). According to the manufacturers, the procedures were modified from published work (McGowan, M. W., Artiss, J. D., Strandbergh, D. R. & Zak, B. Clin Chem, 20:470–5 (1974) and Keston, A. Specific colorimetric enzymatic analytical reagents for glucose. Abstract of papers 129th Meeting ACS, 31C (1956).); and depend on the release of a mole of hydrogen peroxide for each mole of analyte, coupled with a color reaction first described by Trinder (Trinder, P. Determination of glucose in blood using glucose oxidase with an alternative oxygen acceptor. Ann Clin Biochem, 6:24 (1969)). The absorbance of the dye produced is linearly related to the analyte in the sample. The assays were further modified in our laboratory for use in a 96 well format. Standards (Sigma #339-11, Sigma #16-11, and Sigma #CC0534 for glucose, triglycerides and total cholesterol, respectively), quality control plasma (Sigma # A2034), and samples (2 or 5 μl/well) were measured in duplicate using 200 μl of reagent. An additional aliquot of sample, pipetted to a third well and diluted in 200 μl water, provided a blank for each specimen. Plates were incubated at room temperature (18, 15, and 10 minutes for glucose, triglycerides and total cholesterol, respectively) on a plate shaker (DPC Micormix 5) and absorbance read at 500 nm (glucose and total cholesterol) or 540 nm (triglycerides) on a plate reader (Wallac Victor 1420). Sample absorbances were compared to a standard curve (100–800, 10–500, and 100–400 mg/dl for glucose, triglycerides and total cholesterol, respectively). Values for the quality control sample were always within the expected range and the coefficient of variation for samples was below 10%. All samples from an experiment were assayed at the same time to minimize inter-assay variability.
Serum lipoproteins were separated and cholesterol quantitated with an in-line detection system. Sample was applied to a Superose® 6 HR 10/30 size exclusion column (Amersham Pharmacia Biotech) and eluted with phosphate buffered saline-EDTA at 0.5 ml/min. […]

In a further experiment the test system is huPPARα. Kind of experiment: Cotransfection assay in CV-1 cells, luciferase reporter. The class given is cell-based, human. To be noted: GAL4 chimeric system, relative to PPARα agonist reference molecule. The method, then:
[…] binding (ABCD binding) was carried out using SPA technology with PPAR receptors. Tritium-labeled PPARα and PPARγ agonists were used as radioligands for generating displacement curves and IC50 values with compounds of the invention. Cotransfection assays were carried out in CV-1 cells. The reporter plasmid contained an acylCoA oxidase (AOX) PPRE and TK promoter upstream of the luciferase reporter cDNA. Appropriate PPARs and RXRα were constitutively expressed using plasmids containing the CMV promoter. For PPARα and […], interference by endogenous […] in CV-1 cells was an issue. In order to eliminate such interference, a GAL4 chimeric system was used in which the DNA binding domain of the transfected PPAR was replaced by that of GAL4, and the GAL4 response element was utilized in place of the AOX PPRE. Cotransfection efficacy was determined relative to PPARα agonist and […] reference molecules. Efficacies were determined by computer fit to a concentration-response curve, or in some cases at a single high concentration of agonist (10 μM). For binding or cotransfection studies with receptors other than PPARs, similar assays were carried out using appropriate ligands, receptors, reporter constructs, etc., for that particular receptor.
These studies were carried out to evaluate the ability of compounds of the invention to bind to and/or activate various nuclear transcription factors, particularly huPPARα (“hu” indicates “human”) and huPPARγ. These studies provide in vitro data concerning efficacy and selectivity of compounds of the invention. Furthermore, binding and cotransfection data for compounds of the invention were compared with corresponding data for marketed compounds that act on either huPPARα or huPPARγ.
For orientation: Reporter assays use an easily measured gene product as a stand-in for the process of interest.

Molecules are shown by their SMILES.

Take `Cc1oc(-c2cccc(-c3ccc(F)cc3)c2)nc1CCOc1ccc(CC(C)(Oc2ccccc2)C(=O)O)cc1` (centres unmarked) [Example 4, 3-(4-{2-[2-(4′-Fluorobiphenyl-3-yl)-5-methyloxazol-4-yl]ethoxy}phenyl)-2-methyl-2-phenoxypropionic acid]: the “% HDLc Increase” value with Hu apoAI transgenic mice is given as 40.4%. Also, the “huPPARα CTF Efficacy” value with huPPARα turned out to be 38%.
